Reference: US20240274226A1, “MOLECULAR EVALUATION METHODS” (UNIVERSITY COLLEGE DUBLIN, priority 2021, published 2024)

Key:
[1] = tested on: SH-SY5Y-TrkA; test: cSTAR analysis of RPPA perturbation data (STV dot product P, DPD output S), TrkA cells; assay type: cell-based, human; conditions: ligand NGF, 45 minutes, calculated from RPPA data
Excerpt: (§1) Thus, we use this dimensionality reduced STV for estimating the network effects and biological outcomes of experimental perturbations. For each perturbation we determine a perturbation vector that connects the centroids of the point clouds that have been obtained before and after the perturbation. This vector changes the cell phenotype when it pushes the centroid of the original point cloud across the plane that separates different cell states, stabilizes a cell state when moving the centroid away from the separation plane, or has no effect when it is (nearly) parallel to the separation plane.
(§2) These outcomes can be quantified by determining the dot product (P) of the perturbation vector and the dimensionality reduced STV.
(§3) For a correct interpretation of perturbation data using the STV, we have to exclude the analytes that composed the modules of our core signaling network. Accordingly, the dimensionality of the molecular dataspace where the STV and perturbation vectors are calculated is reduced from 115 to 70, due to 45 analytes from Table S1A, related to the five proteins flagged in Table S3, being allocated to core network components, leaving the remaining 70 analytes to defined the reduced dimensionality dataspace.
(§4) Let A with the radius-vector {right arrow over (x)}A be the centroid of the point cloud Ai, corresponding to the unperturbed state 1. Let Apert with the radius-vector {right arrow over (x)}Apert be the centroid of the point cloud (Ai^pert), corresponding to the perturbed state 1. Then the perturbation vector is defined as,
(§5) The projection P of the perturbation vector {right arrow over (P)} on the STV ({right arrow over (s)}) is obtained as a dot product of these two vectors,
(§6) In the molecular dataspace, we consider the STV as a vector {right arrow over (s)} of unit length directed from a centroid of a differentiation TrkA point cloud to a centroid of a proliferation TrkB point cloud. We now define the output of the DPD module as the S value,
(§7) In this definition, the direction of the vector {right arrow over (n)}, which is orthogonal to the separation hyperplane, […]. Then, the DPD value (S) is positive for proliferation TrkB points and negative for differentiation TrkA points.
(§8) Using the STV ({right arrow over (s)}), a perturbation vector ({right arrow over (P)}) and the unit length vector ({right arrow over (n)}) orthogonal to the separation hyperplane, we can calculate how the DPD value changes following each inhibitor perturbation. The DPD values, determined for the centroids of unperturbed (A) and perturbed (Apert) states, S and Spert, respectively, are the following (see Eq. 9),
(§9) In order to reconstruct the posterior network, we used the drug perturbations described in Table 1, measuring 10 and 45 minute timepoints in TrkA and TrkB cells stimulated with NGF or BDNF, respectively.

[2] = tested on: SH-SY5Y-TrkA; test: Differentiation of TrkA cells, live cell images at 72 hours; conditions: for Experimentally measured percentage of differentiated cells: SH-SY5Y-TrkA, ligand NGF; for Experiment (biological outcome): SY5Y-TrkA ± NGF
Method: SH-SY5Y cells stably expressing TrkA or TrkB receptors were stimulated with 100 ng/ml NGF or BDNF, respectively. Differentiation and proliferation were assessed 72 hours after growth factor treatment.
In FIGS. 35A-F, the live cell images are accompanied by bar plots showing the percentage of differentiated cells. The percentages were obtained by examining three images for each set of conditions, and counting the total number of cells and the number of differentiated cells.
FIG. 52 is a bar plot showing the percentage of differentiated cells for different treatments, measured by counting cells in images and calculating the ratio of differentiated cells to total cells.

[3] = tested on: SH-SY5Y-TrkB; test: cSTAR analysis of RPPA perturbation data (STV dot product P, DPD output S), TrkB cells; assay type: cell-based, human; conditions: for Change in the DPD output ΔS / DPD output S: SH-SY5Y-TrkB, ligand BDNF, 45 minutes, calculated from RPPA data
Excerpt: as §1, §2
TrkB cells were treated with the p90RSK inhibitor BI-D1870. Data points were acquired corresponding to 45 min 100 ng/ml GF stimulation, and these were projected into the first 3 principal components in order to calculate the point cloud centroids. For clarity, only the centroids are shown in FIG. 7, corresponding to: TrkA 45 minute NGF, TrkB 45 minute BDNF before perturbation, and the perturbed centroid TrkB RSKi 45 minute BDNF.
as §3, §4, §5, §6, §7, §8, §9

[4] = tested on: TrkB cells; test: RPPA phosphoproteomics (raw fluorescent intensity) in TrkB cells stimulated with ligand and treated with inhibitors; assay type: cell-based, human; conditions: No GF stimulation
Excerpt: (§10) Experiments used a custom made RPPA with 115 validated antibodies listed in Table S1A below to interrogate the activities of signaling pathways involved in TrkA/B signaling (Schramm et al., 2005), including MAPK (RAS-ERK, JNK, p38), PI3 kinase (AKT, mTORC1/2), JAK-STAT, PLCγ-PKC, TGFβ-SMAD, Wnt, cyclic-AMP, cell cycle (CDK1, Cyclins, Rb, p53, p21^WAF), apoptosis (BAX, BCL2, BCLx, Caspase 3), transcription factor (MYC, NFκB, JUN), and tyrosine kinase (SRC, EGFR, PDGFR, IGFR) pathways. In addition to the 115 antibodies, three controls are also included, Mouse 1, 2 and 3.
(§11) For each antibody, RPPA phosphoproteomics data was collected, measured as raw fluorescent intensity values in TrkA and TrkB cells stimulated with a ligand and treated with different inhibitors. A sample of the data is reproduced in Table S1B below, showing the measured fluorescent intensity values for a small sample of antibodies and a small sample of treatment and stimulation conditions. The full data set, including replicated experiments, contains 118 rows (one per antibody) and 144 columns (each containing 118 measurements and relating to an experimental set of treatment and stimulation conditions, which include replicated experiments).
(§12) In terms of the computational approach to processing the acquired data, each analyte level was first normalized on the GAPDH level, and then on the value of the same analyte in the absence of inhibitors and ligand stimulation to obtain fold-changes.
(§13) FIGS. 25-30 show the simulated time courses with the experimental data points (dots with error bars) imposed on the model predictions (curves) for a number of inhibitors: S6K inhibitor (1 μM) FIG. 25A-F; TRK inhibitor (5 μM) FIG. 26A-F; MEK inhibitor (0.5 μM) FIG. 27 A-F; AKT inhibitor (1 μM) FIG. 28A-F; JNK inhibitor (1 μM) FIG. 29A-F; and RSK inhibitor (1 μM) FIG. 30A-F. The TrkA and TrkB cells were treated with the respective inhibitor, and stimulated with 100 ng/ml NGF and BDNF, respectively. Dashed lines are the time courses in the absence of inhibitor. Error bars represent SEM and are calculated using 3 biological replicates.

[5] = tested on: SH-SY5Y-TrkB; test: Differentiation of TrkB cells, live cell images at 72 hours; assay type: cell-based, human; conditions: for Experimentally measured percentage of differentiated cells: SH-SY5Y-TrkB, ligand BDNF; for Experiment (biological outcome): SY5Y-TrkB ± BDNF
Method: FIG. 45 is a live cell image of TrkB cells stimulated with BDNF taken at 72 hours. FIG. 46 is a live cell image of BDNF-stimulated TrkB cells treated with 0.2 μM Trametinib taken at 72 hours. FIG. 47 is a live cell image of BDNF-stimulated TrkB cells treated with 2.5 μM Gefitinib taken at 72 hours. […] FIG. 49 is an additional experiment, being a live cell image of BDNF-stimulated TrkB cells treated with a combination of 2.5 μM Gefitinib and 0.05 μM Trametinib taken at 72 hours.

[6] = tested on: TrkA cells; test: RPPA phosphoproteomics (raw fluorescent intensity) in TrkA cells stimulated with ligand and treated with inhibitors; assay type: cell-based, human
Excerpt: as §10, §11, §12, §13

Molecule | Change in the DPD output ΔS [1] | DPD output S [1] | Experimentally measured percentage of differentiated cells ([2]; 72 hours) | Experiment (biological outcome) [2] | Change in the DPD output ΔS [3] | DPD output S [3] | Experimentally measured percentage of differentiated cells ([5]; 72 hours) | also measured
CC(C)CCN1c2nc(Nc3cc(F)c(O)c(F)c3)ncc2N(C)C(=O)C1C (stereo not drawn) [p90RSK inhibitor, BI-D1870] | 1.8 ± 0.3 | −0.54 ± 0.13 | 37.0% ± 2.4% | decreasing differentiation | −1.7 ± 0.6 | 4.0 ± 0.2 | 29% ± 4% | Perturbation vector component collinear with the STV ([3]; TrkB cells, 45 min 100 ng/ml GF stimulation): moves the proliferation state towards differentiation; Bad P Ser112 raw fluorescent intensity (RPPA) [4]: 0.103; Bad P Ser136 raw fluorescent intensity (RPPA) [4]: 0.07225; Bak raw fluorescent intensity (RPPA) [4]: 0.1888; CrkL P Tyr207 raw fluorescent intensity (RPPA) [4]: 0.2852; HSP27 (HSPB1) P Ser78 raw fluorescent intensity (RPPA) [4]: 0.3221; JAK1 raw fluorescent intensity (RPPA) [4]: 0.1064; Experiment (biological outcome) [5]: weakly increasing differentiation
Cn1cc(-c2ccc(F)c(C(F)(F)F)c2)nc1C1CCN(c2ncnc3[nH]ncc23)CC1 [p70S6K inhibitor, LY2584702] | −1.5 ± 0.4 | −3.8 ± 0.3 | 41% ± 5% |  | −7.8 ± 0.6 | −2.10 ± 0.05 | 45% ± 3% | Bad P Ser112 raw fluorescent intensity (RPPA) ([6]; 10 min NGF stimulation): 0.1181; Bad P Ser136 raw fluorescent intensity (RPPA) ([6]; 10 min NGF stimulation): 0.109; Bak raw fluorescent intensity (RPPA) ([6]; 10 min NGF stimulation): 0.211; CrkL P Tyr207 raw fluorescent intensity (RPPA) ([6]; 10 min NGF stimulation): 0.2814; HSP27 (HSPB1) P Ser78 raw fluorescent intensity (RPPA) ([6]; 10 min NGF stimulation): 0.2939; JAK1 raw fluorescent intensity (RPPA) ([6]; 10 min NGF stimulation): 0.1005
CC(=O)Nc1cccc(-n2c(=O)n(C3CC3)c(=O)c3c(Nc4ccc(I)cc4F)n(C)c(=O)c(C)c32)c1 [MEK inhibitor, Trametinib] | −0.7 ± 0.4 | −3.0 ± 0.3 | 48% ± 3% | No effect | 0.35 ± 0.72 | 6.1 ± 0.4 | 20% ± 1% | Bad P Ser112 raw fluorescent intensity (RPPA) ([6]; 45 min NGF stimulation): 0.2853; Bad P Ser136 raw fluorescent intensity (RPPA) ([6]; 45 min NGF stimulation): 0.07024; Bak raw fluorescent intensity (RPPA) ([6]; 45 min NGF stimulation): 0.0709; CrkL P Tyr207 raw fluorescent intensity (RPPA) ([6]; 45 min NGF stimulation): 0.1174; HSP27 (HSPB1) P Ser78 raw fluorescent intensity (RPPA) ([6]; 45 min NGF stimulation): 0.04349; JAK1 raw fluorescent intensity (RPPA) ([6]; 45 min NGF stimulation): 0.0516
COc1cc2ncnc(Nc3ccc(F)c(Cl)c3)c2cc1OCCCN1CCOCC1 [Gefitinib] |  |  |  |  |  |  |  | differentiation of TrkB cells (live cell images) ([5]; BDNF-stimulated, 72 hours, combination 1.25 μM Gefitinib + 0.1 μM Trametinib or 2.5 μM + 0.05 μM, alone 2.5 μM Gefitinib, 0.2 μM Trametinib): not with either inhibitor applied separately
NGF: TrkA ligand, growth factor |  |  |  |  |  |  |  | cell fate after growth factor treatment ([2]; TrkA cells, 100 ng/ml, 72 hours): differentiation
Cc1cc(NC(=O)c2cccc(NC(=O)/C=C/CN(C)C)c2)ccc1Nc1nccc(-c2cccnc2)n1 [JNK inhibitor, JNK-IN-8] | −0.07 ± 0.75 | −2.4 ± 0.7 | 45% ± 5% | No effect | 0.23 ± 0.82 | 5.95 ± 0.56 | 25% ± 4% | Experiment (biological outcome) [5]: No effect
CC[n+]1c(/C=C/N(C)c2ccccc2)n(-c2ccccc2)c2ccc(-c3nc4ccccc4s3)cc21.[I-] [AKT inhibitor, AKT inhibitor IV] | −1.3 ± 0.6 | −3.6 ± 0.5 | 62% ± 3% |  | −1.5 ± 1.0 | 4.3 ± 0.8 | 34.3% ± 0.8% | 
BDNF: TrkB ligand, growth factor (protein, UniProt P23560 19-247, looked up) Neurotrophic factor BDNF …: APMKEANIRGQGGLAYPGVRTHGTLESVNGPKAGSRGLTSLADTFEHVIEELLDEDQKVRPNEENNKDADLYTSRVMLSSQVPLEPPLLFLLEEYKNYLDAANMSMRVRRHSDPARRGELSVCDSISEWVTAADKKTAVDMSGGTVTVLEKVPVSKGQLKQYFYETKCNPMGYTKEGCRGIDKRHWNSQCRTTQSYVRALTMDSKKRIGWRFIRIDTSCVCTLTIKRGR |  |  |  |  |  |  |  | cell fate after growth factor treatment ([5]; TrkB cells, 100 ng/ml, 72 hours): proliferation
